Experiment [1] concerns the target T1, Type-1 angiotensin II receptor A (Rattus norvegicus, UniProt P25095).
T1 sequence (P25095 whole entry): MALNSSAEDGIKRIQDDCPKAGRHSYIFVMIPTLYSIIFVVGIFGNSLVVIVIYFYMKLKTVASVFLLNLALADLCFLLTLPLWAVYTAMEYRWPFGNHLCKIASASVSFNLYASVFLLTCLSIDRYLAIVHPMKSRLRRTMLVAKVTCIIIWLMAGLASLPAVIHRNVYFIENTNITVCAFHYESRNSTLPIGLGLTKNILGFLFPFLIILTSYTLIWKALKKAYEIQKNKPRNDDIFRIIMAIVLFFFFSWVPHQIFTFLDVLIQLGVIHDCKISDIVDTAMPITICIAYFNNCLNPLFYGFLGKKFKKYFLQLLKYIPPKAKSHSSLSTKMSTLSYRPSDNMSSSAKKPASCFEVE
Kind of experiment: Displacement of [125I]SI-Ang2 from AT1 receptor in Sprague-Dawley rat liver membrane. The format is cell membranes. (Displacement assays read how much labelled ligand stays bound in the presence of the test substance.)

The target of experiment [2] is T2, Peroxisome proliferator-activated receptor gamma (Homo sapiens) (UniProt P37231).
T2 sequence (whole entry): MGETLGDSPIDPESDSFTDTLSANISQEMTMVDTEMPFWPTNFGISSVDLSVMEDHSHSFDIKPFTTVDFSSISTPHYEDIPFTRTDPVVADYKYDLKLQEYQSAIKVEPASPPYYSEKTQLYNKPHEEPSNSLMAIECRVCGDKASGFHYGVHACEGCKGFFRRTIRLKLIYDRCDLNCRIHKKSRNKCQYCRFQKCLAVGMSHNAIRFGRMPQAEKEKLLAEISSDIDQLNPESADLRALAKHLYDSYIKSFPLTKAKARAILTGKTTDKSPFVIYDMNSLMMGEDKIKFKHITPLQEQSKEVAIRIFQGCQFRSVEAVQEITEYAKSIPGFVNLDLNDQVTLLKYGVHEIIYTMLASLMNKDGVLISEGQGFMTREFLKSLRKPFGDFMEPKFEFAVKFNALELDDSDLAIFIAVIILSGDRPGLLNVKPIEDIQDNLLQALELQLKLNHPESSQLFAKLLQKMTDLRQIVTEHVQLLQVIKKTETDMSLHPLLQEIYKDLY
Kind of experiment: Agonist activity at human recombinant PPARgamma expressed in CV1 cells coexpressing GAL4 assessed as receptor transactivation at 10 uM by luciferase reporter gene assay relative to full agonist. In kind it is functional, cell-based. The settings on record: CV-1. A general note: A reporter such as luciferase makes a cellular process visible.

In experiment [3] the target is T3, Peroxisome proliferator-activated receptor alpha (Homo sapiens) (UniProt Q07869).
T3 sequence (whole entry): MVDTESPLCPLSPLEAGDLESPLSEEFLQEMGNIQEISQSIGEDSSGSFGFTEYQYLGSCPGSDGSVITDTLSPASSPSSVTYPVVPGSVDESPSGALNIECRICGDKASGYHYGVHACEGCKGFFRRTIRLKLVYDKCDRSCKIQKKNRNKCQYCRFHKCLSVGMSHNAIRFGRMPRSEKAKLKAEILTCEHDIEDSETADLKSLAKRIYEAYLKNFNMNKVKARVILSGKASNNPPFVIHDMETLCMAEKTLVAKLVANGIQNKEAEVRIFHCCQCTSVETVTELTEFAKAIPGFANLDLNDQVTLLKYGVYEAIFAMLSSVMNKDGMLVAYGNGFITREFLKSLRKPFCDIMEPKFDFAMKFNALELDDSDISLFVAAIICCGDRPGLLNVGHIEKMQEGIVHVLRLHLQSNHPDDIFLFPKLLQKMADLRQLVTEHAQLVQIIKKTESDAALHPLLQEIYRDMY
Kind of experiment: Agonist activity at PPARalpha assessed as receptor transactivation by reporter gene assay relative to control. In kind it is functional.

For experiment [4], the target named is Peroxisome proliferator-activated receptor alpha (Homo sapiens) (UniProt Q07869). Nature of the experiment: Agonist activity at human recombinant PPARalpha expressed in CV1 cells coexpressing GAL4 assessed as receptor transactivation at 10 µM by luciferase reporter gene assay relative to full agonist. The settings on record: CV-1.
In experiment [5] the target is T4, Peroxisome proliferator-activated receptor alpha (Homo sapiens, UniProt Q07869).
T4 sequence (Q07869 whole entry): T3 sequence (whole entry)
Nature of the experiment: Agonist activity at PPARalpha assessed as receptor transactivation by reporter gene assay. The format is functional.

This note sets out measurements from ChEMBL document CHEMBL1156825, “Design, synthesis, and docking studies of novel benzimidazoles for the treatment of metabolic syndrome” (J Med Chem, 2010).

Calls of active or inactive are those of the source. The calls are words filed in the database; no cut-off is given here.

With `CCCc1nc2c(C)cccc2n1Cc1ccc(OCc2nnn[nH]2)cc1`, the inhibitory constant (Ki) in experiment [1] was 5.06 µM. Besides, the result in experiment [2] was inactive.
For `CCCc1nc2c(C)cccc2n1Cc1ccc(OC(C)(C)C(=O)OCC)cc1`, in that order: > 10 µM and 21%.
Consider `CCCc1nc2c(C)cc(-c3nc4ccccc4n3C)cc2n1Cc1ccc(-c2ccccc2C(=O)O)cc1`, for which the Activity in experiment [2] amounted to 21.9%.
For `CCCc1nc2c(C)cc(-c3nc4ccccc4n3C)cc2n1Cc1ccc(CCc2nnn[nH]2)cc1`, the Ki in experiment [1] was 0.0134 µM. For the same molecule, the outcome in experiment [2] was inactive.
For the molecule `CCCc1nc2c(C)cc(-c3nc4ccccc4n3C)cc2n1CCOc1ccc(CC(C)(Oc2ccccc2)C(=O)OCC)cc1` (centres undefined), the Activity amounted to 15% in experiment [3], 15% in experiment [4] and 29% in experiment [2]. This molecule also gave a Ki in experiment [1] of 2.53 µM.
On to `CCCc1nc2c(C)cc(-c3nc4ccccc4n3C)cc2n1CCOc1ccc(CCc2nnn[nH]2)cc1`, for which affinity in experiment [1] was put at a Ki of 1.62 µM. The outcome in experiment [2] was inactive.
For `CCCc1nc2c(C)cccc2n1Cc1ccc(OCC(=O)OCC)cc1`, in experiment [1], the inhibition constant (Ki) was > 10 µM.
Take `CCCc1nc2c(C)cccc2n1CCOc1ccc(CC(C)(C)C(=O)OCC)cc1`: the Ki in experiment [1] is > 10 µM. Further, the Activity in experiment [2] amounted to 10%.
With `CCCc1nc2c(C)cccc2n1CCOc1ccc(CC(C)(Oc2ccccc2)C(=O)OCC)cc1` (centres undefined), the Activity in experiment [3] stood at 93%; in experiment [4] it was 93%; in experiment [2], 69%. Besides, the Ki in experiment [1] is > 10 µM. Further, the concentration for a half-maximal effect (EC50) in experiment [5] is 0.3 µM.
For the molecule `CCCc1nc2c(C)cccc2n1Cc1ccc(CCC(=O)OC)cc1`, the Ki in experiment [1] is > 10 µM. For the same molecule, the Activity in experiment [2] stood at 2%.
The corresponding values for `CCCc1nc2c(C)cc(-c3nc4ccccc4n3C)cc2n1CCOc1ccc(CC(C)(Oc2ccccc2)C(=O)O)cc1` (centres undefined) are 2.23 µM and 12%.
The corresponding values for `CCCc1nc2c(C)cccc2n1Cc1ccc(CCc2nnn[nH]2)cc1` are 2.84 µM and “inactive”.
For `CCCc1nc2c(C)cccc2n1Cc1ccc(/C=C/C(=O)OCC)cc1`, in that order: > 10 µM and 4%.

As a reminder, the Ki is the equilibrium dissociation constant of an inhibitor or competing ligand from its target. As a reminder, the EC50 is the concentration needed to bring the measured effect to its halfway point.
